From patent US20200291018A1, “TAM KINASE INHIBITORS” (SYROS PHARMACEUTICALS, INC., priority 2017, published 2020)
Blank lines part the entries; values can stand above or below the compound they belong to.

Key:
[1] = target: T1, AXL (Homo sapiens, UniProt P30530); assay: TR-FRET kinase activity assay, AXL; assay type: biochemical; details: ATP at Km, 60 minutes
T1 sequence (P30530 26-894): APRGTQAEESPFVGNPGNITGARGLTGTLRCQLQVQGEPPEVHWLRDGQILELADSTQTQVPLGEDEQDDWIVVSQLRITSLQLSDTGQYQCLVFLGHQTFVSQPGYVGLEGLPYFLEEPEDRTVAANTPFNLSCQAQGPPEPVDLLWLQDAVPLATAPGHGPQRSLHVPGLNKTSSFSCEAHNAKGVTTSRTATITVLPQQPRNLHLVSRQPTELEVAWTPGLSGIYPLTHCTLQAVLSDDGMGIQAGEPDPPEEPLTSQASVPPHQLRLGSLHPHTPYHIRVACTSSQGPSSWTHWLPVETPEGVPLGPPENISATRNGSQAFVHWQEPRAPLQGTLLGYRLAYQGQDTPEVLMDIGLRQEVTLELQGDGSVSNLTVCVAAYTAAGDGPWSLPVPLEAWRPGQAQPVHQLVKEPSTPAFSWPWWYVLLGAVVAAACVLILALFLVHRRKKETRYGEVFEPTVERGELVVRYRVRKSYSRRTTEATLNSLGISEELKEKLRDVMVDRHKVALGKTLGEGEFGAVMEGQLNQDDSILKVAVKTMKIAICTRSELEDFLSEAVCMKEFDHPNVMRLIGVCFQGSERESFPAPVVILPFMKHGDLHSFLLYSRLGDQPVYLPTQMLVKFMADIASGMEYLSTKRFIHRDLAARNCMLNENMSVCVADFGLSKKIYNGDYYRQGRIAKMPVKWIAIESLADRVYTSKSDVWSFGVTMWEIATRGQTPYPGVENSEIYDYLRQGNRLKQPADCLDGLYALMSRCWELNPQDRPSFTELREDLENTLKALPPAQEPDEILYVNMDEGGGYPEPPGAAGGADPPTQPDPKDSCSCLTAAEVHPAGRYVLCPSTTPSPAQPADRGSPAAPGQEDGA
Method in brief: (§1)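 Buffer 50 mM HEPES pH 7.5/10 mM MgCl2/1 mM EGTA/0.01% Brij 35/1 mM DTT, RT. Km ATP per kinase, labeled peptide, 60 min; 12.5 mM EDTA stop; Eu-Ab 30 min dark; TR-FRET → IC50.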

[2] = target: T2, MERTK (Homo sapiens, UniProt Q12866); assay: TR-FRET kinase activity assay, MERTK; assay type: biochemical; details: for IC50: TR-FRET activity assay, ATP at Km, 60 minutes, read-out: Mer IC50; for Mer/Flt3 ratio (FLT3 IC50/Mer IC50): ratio calculated as FLT3 IC50/Mer IC50
T2 sequence (Q12866 21-999): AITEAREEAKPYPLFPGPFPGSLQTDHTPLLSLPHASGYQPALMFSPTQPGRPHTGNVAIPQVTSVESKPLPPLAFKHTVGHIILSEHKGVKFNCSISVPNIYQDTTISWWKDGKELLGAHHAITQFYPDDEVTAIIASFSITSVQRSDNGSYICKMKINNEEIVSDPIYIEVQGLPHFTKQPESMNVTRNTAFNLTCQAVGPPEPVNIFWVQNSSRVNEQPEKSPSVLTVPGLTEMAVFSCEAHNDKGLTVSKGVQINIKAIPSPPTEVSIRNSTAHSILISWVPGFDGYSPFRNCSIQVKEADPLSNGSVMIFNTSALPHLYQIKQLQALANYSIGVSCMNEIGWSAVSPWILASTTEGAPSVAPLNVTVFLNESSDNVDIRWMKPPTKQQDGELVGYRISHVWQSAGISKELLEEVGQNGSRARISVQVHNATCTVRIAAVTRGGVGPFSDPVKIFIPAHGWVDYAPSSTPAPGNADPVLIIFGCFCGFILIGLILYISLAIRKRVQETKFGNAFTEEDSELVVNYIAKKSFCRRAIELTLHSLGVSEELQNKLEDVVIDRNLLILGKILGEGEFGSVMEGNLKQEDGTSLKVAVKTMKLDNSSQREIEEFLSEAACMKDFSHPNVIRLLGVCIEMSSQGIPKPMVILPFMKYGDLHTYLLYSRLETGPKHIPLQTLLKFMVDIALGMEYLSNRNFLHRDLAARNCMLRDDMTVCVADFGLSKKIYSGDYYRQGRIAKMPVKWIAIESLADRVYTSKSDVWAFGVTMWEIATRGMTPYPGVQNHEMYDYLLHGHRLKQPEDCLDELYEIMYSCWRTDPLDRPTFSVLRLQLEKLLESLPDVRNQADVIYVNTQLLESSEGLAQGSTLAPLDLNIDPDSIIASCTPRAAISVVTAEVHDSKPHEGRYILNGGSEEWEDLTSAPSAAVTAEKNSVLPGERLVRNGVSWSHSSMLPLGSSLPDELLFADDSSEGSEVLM
Method in brief: as §1

Compound: COC[C@H](C)Nc1ncc2c(OC3CCOCC3)ncc(-c3ccc(F)cc3)c2n1 [Compound 395]
- IC50 [1]: 1000 to 10000 nM
- IC50 [2]: 100 to 1000 nM
- Mer/Flt3 ratio (FLT3 IC50/Mer IC50) [2]: ++ (a ratio of between 10 and 100)

Compound: COC[C@H](C)Nc1ncc2c(OC3CCOCC3)ncc(-c3ccc(C#N)cc3)c2n1 [Compound 396]
- IC50 [1]: 1000 to 10000 nM
- IC50 [2]: ≤ 100 nM
- Mer/Flt3 ratio (FLT3 IC50/Mer IC50) [2]: +++ (a ratio of >100)

Compound: O=C(O)c1ccc(Nc2ncc3c(OC4CCOCC4)ncc([C@H]4CC[C@H](O)CC4)c3n2)cc1 [Compound 397]
- IC50 [1]: ≤ 100 nM
- IC50 [2]: ≤ 100 nM
- Mer/Flt3 ratio (FLT3 IC50/Mer IC50) [2]: ++ (a ratio of between 10 and 100)

Compound: CNC(=O)c1ccc(Nc2ncc3c(OC4CCOCC4)ncc([C@H]4CC[C@H](O)CC4)c3n2)cc1 [Compound 398]
- IC50 [1]: 100 to 1000 nM
- IC50 [2]: ≤ 100 nM
- Mer/Flt3 ratio (FLT3 IC50/Mer IC50) [2]: + (a ratio of >2.0 and <10)

Compound: NC(=O)c1ccc(Nc2ncc3c(OC4CCOCC4)ncc([C@H]4CC[C@H](O)CC4)c3n2)cc1 [Compound 399]
- IC50 [1]: ≤ 100 nM
- IC50 [2]: ≤ 100 nM
- Mer/Flt3 ratio (FLT3 IC50/Mer IC50) [2]: NS (a ratio of ≤2.0)

Compound: COC[C@H](C)Nc1ncc2c(OC3CCOCC3)ncc(-c3ccc(S(C)(=O)=O)cc3)c2n1 [Compound 400]
- IC50 [1]: 1000 to 10000 nM
- IC50 [2]: 100 to 1000 nM
- Mer/Flt3 ratio (FLT3 IC50/Mer IC50) [2]: ++ (a ratio of between 10 and 100)

Compound: C[C@H](CF)Nc1ncc2c(OC3CCOCC3)ncc([C@H]3CC[C@H](O)CC3)c2n1 [Compound 401]
- IC50 [1]: 100 to 1000 nM
- IC50 [2]: ≤ 100 nM
- Mer/Flt3 ratio (FLT3 IC50/Mer IC50) [2]: +++ (a ratio of >100)

Compound: C[C@@H](CC(F)(F)F)Nc1ncc2c(O[C@H]3C[C@@H](CN4CCOCC4)C3)ncc([C@H]3CC[C@H](O)CC3)c2n1 [Compound 402]
- IC50 [1]: ≤ 100 nM
- IC50 [2]: ≤ 100 nM
- Mer/Flt3 ratio (FLT3 IC50/Mer IC50) [2]: +++ (a ratio of >100)

Compound: COC[C@H](C)Nc1ncc2c(C(F)(F)F)ncc([C@H]3CC[C@H](O)CC3)c2n1 [Compound 403]
- IC50 [1]: 1000 to 10000 nM
- IC50 [2]: 100 to 1000 nM
- Mer/Flt3 ratio (FLT3 IC50/Mer IC50) [2]: ++ (a ratio of between 10 and 100)

Compound: CC1(Nc2ncc3c(OC4CCOCC4)ncc(-c4cccc(NS(C)(=O)=O)c4)c3n2)CC1 [Compound 404]
- IC50 [1]: 100 to 1000 nM
- IC50 [2]: ≤ 100 nM
- Mer/Flt3 ratio (FLT3 IC50/Mer IC50) [2]: ++ (a ratio of between 10 and 100)

Now from value to compound:

- IC50 [1]: 100 to 1000 nM
- IC50 [2]: ≤ 100 nM
- Mer/Flt3 ratio (FLT3 IC50/Mer IC50) [2]: +++ (a ratio of >100)
Compound: CC1(Nc2ncc3c(OC4CCOCC4)ncc(-c4cccc(S(=O)(=O)N5CCC5)c4)c3n2)CC1 [Compound 405]

- IC50 [1]: 1000 to 10000 nM
- IC50 [2]: ≤ 100 nM
- Mer/Flt3 ratio (FLT3 IC50/Mer IC50) [2]: +++ (a ratio of >100)
Compound: C[C@H](CC(F)(F)F)Nc1ncc2c(O[C@H]3C[C@@H](O)C3)ncc([C@H]3CC[C@H](O)CC3)c2n1 [Compound 406]

- IC50 [1]: 100 to 1000 nM
- IC50 [2]: ≤ 100 nM
- Mer/Flt3 ratio (FLT3 IC50/Mer IC50) [2]: +++ (a ratio of >100)
Compound: C[C@@H](COC(F)F)Nc1ncc2c(O[C@H]3C[C@@H](O)C3)ncc([C@H]3CC[C@H](O)CC3)c2n1 [Compound 407]

- IC50 [1]: 100 to 1000 nM
- IC50 [2]: ≤ 100 nM
- Mer/Flt3 ratio (FLT3 IC50/Mer IC50) [2]: +++ (a ratio of >100)
Compound: C[C@@H](CC(F)(F)F)Nc1ncc2c(O[C@H]3C[C@@H](N4CCOCC4)C3)ncc([C@H]3CC[C@H](O)CC3)c2n1 [Compound 408]

- IC50 [1]: 1000 to 10000 nM
- IC50 [2]: ≤ 100 nM
- Mer/Flt3 ratio (FLT3 IC50/Mer IC50) [2]: ++ (a ratio of between 10 and 100)
Compound: C[C@@H](CC(F)(F)F)Nc1ncc2c(O[C@H]3C[C@@H](O)C3)ncc(-c3ccc(C4(C#N)CC4)cc3)c2n1 [Compound 409]
